Experimental data reported in ChEMBL document CHEMBL4507297, “Data for DCP probe PF-04457845” (2021).

How the values were obtained:
[1] = system: Tyrosine-protein kinase ABL1 (Homo sapiens), P00519 [T315I]; settings: Compound concentration 1000.0 nM
[2] = molecular target: Calcium/calmodulin-dependent protein kinase type II subunit beta (Homo sapiens) (UniProt Q13554); settings: Compound concentration 1000.0 nM
[3] = molecular target: Cyclin-dependent kinase 2 (Homo sapiens) (UniProt P24941); settings: Compound concentration 1000.0 nM
[4] = molecular target: Cyclin-dependent kinase 7 (Homo sapiens) (UniProt P50613); settings: Compound concentration 1000.0 nM
[5] = molecular target: Cyclin-dependent kinase 8 (Homo sapiens) (UniProt P49336); settings: Compound concentration 1000.0 nM
[6] = molecular target: Cyclin-dependent kinase-like 5 (Homo sapiens) (UniProt O76039); settings: Compound concentration 1000.0 nM
[7] = molecular target: Dual specificity protein kinase CLK3 (Homo sapiens) (UniProt P49761); settings: Compound concentration 1000.0 nM
[8] = molecular target: Casein kinase II subunit alpha (Homo sapiens) (UniProt P68400); settings: Compound concentration 1000.0 nM
[9] = molecular target: Serine/threonine-protein kinase DCLK3 (Homo sapiens) (UniProt Q9C098); settings: Compound concentration 1000.0 nM
[10] = molecular target: Receptor tyrosine-protein kinase erbB-2 (Homo sapiens) (UniProt P04626); settings: Compound concentration 1000.0 nM
[11] = molecular target: Mitogen-activated protein kinase 3 (Homo sapiens) (UniProt P27361); settings: Compound concentration 1000.0 nM
[12] = molecular target: Fibroblast growth factor receptor 2 (Homo sapiens) (UniProt P21802); settings: Compound concentration 1000.0 nM
[13] = system: Receptor-type tyrosine-protein kinase FLT3 (Homo sapiens), P36888 [D835Y]; settings: Compound concentration 1000.0 nM
[14] = molecular target: Vascular endothelial growth factor receptor 3 (Homo sapiens) (UniProt P35916); settings: Compound concentration 1000.0 nM
[15] = molecular target: Tyrosine-protein kinase FRK (Homo sapiens) (UniProt P42685); settings: Compound concentration 1000.0 nM
[16] = molecular target: Beta-adrenergic receptor kinase 1 (Homo sapiens) (UniProt P25098); settings: Compound concentration 1000.0 nM
[17] = molecular target: Glycogen synthase kinase-3 alpha (Homo sapiens) (UniProt P49840); settings: Compound concentration 1000.0 nM
Chain of Glycogen synthase kinase-3 alpha (Homo sapiens) (P49840 2-483 limits assumed): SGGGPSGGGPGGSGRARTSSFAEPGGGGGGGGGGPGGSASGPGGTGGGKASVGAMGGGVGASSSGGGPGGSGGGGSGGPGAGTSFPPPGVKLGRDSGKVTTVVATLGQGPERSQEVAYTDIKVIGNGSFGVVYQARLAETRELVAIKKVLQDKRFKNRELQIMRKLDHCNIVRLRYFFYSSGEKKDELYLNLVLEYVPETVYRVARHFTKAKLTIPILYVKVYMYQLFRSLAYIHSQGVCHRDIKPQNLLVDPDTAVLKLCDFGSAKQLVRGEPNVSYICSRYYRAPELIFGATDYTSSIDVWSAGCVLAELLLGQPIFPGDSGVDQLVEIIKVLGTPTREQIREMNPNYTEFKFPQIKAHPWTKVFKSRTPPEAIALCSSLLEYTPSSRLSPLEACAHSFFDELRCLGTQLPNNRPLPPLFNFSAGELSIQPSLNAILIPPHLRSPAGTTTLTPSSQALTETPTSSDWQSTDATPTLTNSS

[18] = system: Mast/stem cell growth factor receptor Kit (Homo sapiens), P10721 [L576P]; settings: Compound concentration 1000.0 nM
[19] = molecular target: LIM domain kinase 1 (Homo sapiens) (UniProt P53667); settings: Compound concentration 1000.0 nM
[20] = molecular target: Dual specificity mitogen-activated protein kinase kinase 6 (Homo sapiens) (UniProt P52564); settings: Compound concentration 1000.0 nM
Chain of Dual specificity mitogen-activated protein kinase kinase 6 (Homo sapiens) (P52564 whole entry): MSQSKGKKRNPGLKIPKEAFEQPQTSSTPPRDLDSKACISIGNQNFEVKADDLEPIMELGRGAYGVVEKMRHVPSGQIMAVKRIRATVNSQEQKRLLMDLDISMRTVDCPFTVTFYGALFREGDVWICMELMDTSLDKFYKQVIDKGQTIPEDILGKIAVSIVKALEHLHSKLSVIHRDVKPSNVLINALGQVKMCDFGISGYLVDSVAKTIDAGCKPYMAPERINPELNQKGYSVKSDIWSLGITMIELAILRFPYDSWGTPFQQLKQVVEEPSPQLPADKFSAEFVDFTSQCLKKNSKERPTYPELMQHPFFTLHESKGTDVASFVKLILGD

[21] = molecular target: Tyrosine-protein kinase Mer (Homo sapiens) (UniProt Q12866); settings: Compound concentration 1000.0 nM
Chain of Tyrosine-protein kinase Mer (Homo sapiens) (Q12866 whole entry): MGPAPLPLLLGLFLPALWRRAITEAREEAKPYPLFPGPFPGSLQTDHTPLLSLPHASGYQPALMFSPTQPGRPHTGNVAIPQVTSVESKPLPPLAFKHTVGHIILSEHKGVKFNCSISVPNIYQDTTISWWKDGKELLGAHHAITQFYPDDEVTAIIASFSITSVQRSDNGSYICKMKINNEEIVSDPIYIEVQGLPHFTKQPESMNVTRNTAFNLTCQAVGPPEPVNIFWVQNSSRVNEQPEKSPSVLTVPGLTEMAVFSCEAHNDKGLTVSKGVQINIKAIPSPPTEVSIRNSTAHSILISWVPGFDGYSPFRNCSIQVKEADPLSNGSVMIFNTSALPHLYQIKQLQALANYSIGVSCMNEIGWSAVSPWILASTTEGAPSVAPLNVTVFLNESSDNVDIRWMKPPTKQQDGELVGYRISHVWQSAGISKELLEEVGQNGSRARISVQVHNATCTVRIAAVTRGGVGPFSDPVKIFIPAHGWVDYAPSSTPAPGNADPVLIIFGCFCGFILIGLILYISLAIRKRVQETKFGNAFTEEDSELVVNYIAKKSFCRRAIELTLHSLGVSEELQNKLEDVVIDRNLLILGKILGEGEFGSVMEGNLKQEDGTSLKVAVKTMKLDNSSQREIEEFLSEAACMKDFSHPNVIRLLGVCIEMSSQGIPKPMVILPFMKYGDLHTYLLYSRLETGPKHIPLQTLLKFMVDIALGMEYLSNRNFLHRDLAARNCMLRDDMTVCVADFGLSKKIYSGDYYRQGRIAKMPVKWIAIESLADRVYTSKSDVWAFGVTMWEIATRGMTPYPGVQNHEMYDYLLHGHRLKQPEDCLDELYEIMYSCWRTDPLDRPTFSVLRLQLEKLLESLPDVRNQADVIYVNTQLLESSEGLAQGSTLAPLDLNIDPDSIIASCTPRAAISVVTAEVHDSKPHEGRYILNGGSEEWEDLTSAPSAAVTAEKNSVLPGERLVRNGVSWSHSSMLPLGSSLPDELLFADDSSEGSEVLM

[22] = molecular target: Serine/threonine-protein kinase Nek1 (Homo sapiens) (UniProt Q96PY6); settings: Compound concentration 1000.0 nM
[23] = molecular target: Mitogen-activated protein kinase kinase kinase 14 (Homo sapiens) (UniProt Q99558); settings: Compound concentration 1000.0 nM
[24] = molecular target: Phosphatidylinositol 4,5-bisphosphate 3-kinase catalytic subunit beta isoform (Homo sapiens) (UniProt P42338); settings: Compound concentration 1000.0 nM
[25] = molecular target: Phosphatidylinositol 4-kinase beta (Homo sapiens) (UniProt Q9UBF8); settings: Compound concentration 1000.0 nM
[26] = molecular target: Protein kinase C iota type (Homo sapiens) (UniProt P41743); settings: Compound concentration 1000.0 nM
[27] = molecular target: cGMP-dependent protein kinase 1 (Homo sapiens) (UniProt Q13976); settings: Compound concentration 1000.0 nM
[28] = molecular target: Interferon-induced, double-stranded RNA-activated protein kinase (Homo sapiens) (UniProt P19525); settings: Compound concentration 1000.0 nM
[29] = molecular target: Protein-tyrosine kinase 2-beta (Homo sapiens) (UniProt Q14289); settings: Compound concentration 1000.0 nM
Chain of Protein-tyrosine kinase 2-beta (Homo sapiens) (Q14289 whole entry, looked up): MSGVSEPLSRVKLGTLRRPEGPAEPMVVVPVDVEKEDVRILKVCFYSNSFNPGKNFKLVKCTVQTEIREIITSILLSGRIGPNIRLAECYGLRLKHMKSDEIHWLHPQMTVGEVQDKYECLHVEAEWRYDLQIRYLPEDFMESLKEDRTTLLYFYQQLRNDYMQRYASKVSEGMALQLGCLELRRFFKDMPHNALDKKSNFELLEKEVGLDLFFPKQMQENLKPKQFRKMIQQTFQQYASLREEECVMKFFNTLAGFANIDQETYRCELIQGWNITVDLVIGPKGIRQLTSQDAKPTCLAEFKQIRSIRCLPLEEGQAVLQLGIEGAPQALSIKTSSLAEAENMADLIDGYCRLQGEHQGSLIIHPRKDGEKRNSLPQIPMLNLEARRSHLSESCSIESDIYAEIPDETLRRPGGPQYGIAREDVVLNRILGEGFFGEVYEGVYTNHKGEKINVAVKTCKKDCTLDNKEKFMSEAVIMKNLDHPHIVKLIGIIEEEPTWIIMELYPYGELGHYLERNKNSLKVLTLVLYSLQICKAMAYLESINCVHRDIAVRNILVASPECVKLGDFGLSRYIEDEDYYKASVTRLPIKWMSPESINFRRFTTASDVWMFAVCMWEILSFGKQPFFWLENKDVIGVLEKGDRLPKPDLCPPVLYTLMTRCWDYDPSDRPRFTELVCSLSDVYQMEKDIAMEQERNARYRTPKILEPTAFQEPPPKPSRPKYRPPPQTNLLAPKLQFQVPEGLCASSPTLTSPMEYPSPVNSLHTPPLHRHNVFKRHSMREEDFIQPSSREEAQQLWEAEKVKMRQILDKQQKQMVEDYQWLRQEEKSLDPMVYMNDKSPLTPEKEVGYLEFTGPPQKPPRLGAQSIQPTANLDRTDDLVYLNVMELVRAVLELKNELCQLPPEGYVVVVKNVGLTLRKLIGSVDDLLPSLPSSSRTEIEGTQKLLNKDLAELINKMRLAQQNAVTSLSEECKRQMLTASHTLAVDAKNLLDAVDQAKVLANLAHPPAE

[30] = molecular target: Serine/threonine-protein kinase RIO3 (Homo sapiens) (UniProt O14730); settings: Compound concentration 1000.0 nM
[31] = molecular target: Receptor-interacting serine/threonine-protein kinase 1 (Homo sapiens) (UniProt Q13546); settings: Compound concentration 1000.0 nM
[32] = molecular target: Ribosomal protein S6 kinase alpha-1 (Homo sapiens) (UniProt Q15418); settings: Compound concentration 1000.0 nM
[33] = molecular target: Serine/threonine-protein kinase SIK2 (Homo sapiens) (UniProt Q9H0K1); settings: Compound concentration 1000.0 nM
[34] = molecular target: Tyrosine-protein kinase Srms (Homo sapiens) (UniProt Q9H3Y6); settings: Compound concentration 1000.0 nM
[35] = molecular target: SRSF protein kinase 1 (Homo sapiens) (UniProt Q96SB4); settings: Compound concentration 1000.0 nM
[36] = molecular target: STE20/SPS1-related proline-alanine-rich protein kinase (Homo sapiens) (UniProt Q9UEW8); settings: Compound concentration 1000.0 nM
[37] = molecular target: Tyrosine-protein kinase receptor Tie-1 (Homo sapiens) (UniProt P35590); settings: Compound concentration 1000.0 nM
[38] = molecular target: Angiopoietin-1 receptor (Homo sapiens) (UniProt Q02763); settings: Compound concentration 1000.0 nM
[39] = molecular target: Wee1-like protein kinase (Homo sapiens) (UniProt P30291); settings: Compound concentration 1000.0 nM
Chain of Wee1-like protein kinase (Homo sapiens) (P30291 whole entry, looked up): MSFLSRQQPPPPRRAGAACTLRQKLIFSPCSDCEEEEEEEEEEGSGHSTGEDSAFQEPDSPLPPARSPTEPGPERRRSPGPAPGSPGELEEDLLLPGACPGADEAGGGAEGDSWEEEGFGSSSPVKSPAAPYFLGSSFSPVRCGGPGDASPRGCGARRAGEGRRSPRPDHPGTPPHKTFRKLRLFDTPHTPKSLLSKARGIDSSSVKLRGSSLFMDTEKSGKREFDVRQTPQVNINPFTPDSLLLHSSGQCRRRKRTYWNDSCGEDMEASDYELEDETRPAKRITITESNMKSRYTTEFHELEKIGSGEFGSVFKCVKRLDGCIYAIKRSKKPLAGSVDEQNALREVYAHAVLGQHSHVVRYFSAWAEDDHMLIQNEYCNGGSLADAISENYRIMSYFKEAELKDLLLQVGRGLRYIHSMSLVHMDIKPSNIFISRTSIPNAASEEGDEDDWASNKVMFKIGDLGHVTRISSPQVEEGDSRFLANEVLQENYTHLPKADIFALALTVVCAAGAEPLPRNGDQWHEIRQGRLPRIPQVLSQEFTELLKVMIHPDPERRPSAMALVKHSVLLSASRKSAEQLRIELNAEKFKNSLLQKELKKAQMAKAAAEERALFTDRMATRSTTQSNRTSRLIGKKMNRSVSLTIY

[40] = molecular target: Serine/threonine-protein kinase WNK2 (Homo sapiens) (UniProt Q9Y3S1); settings: Compound concentration 1000.0 nM
[41] = molecular target: Serine/threonine-protein kinase 32C (Homo sapiens) (UniProt Q86UX6); settings: Compound concentration 1000.0 nM
Chain of Serine/threonine-protein kinase 32C (Homo sapiens) (Q86UX6 whole entry): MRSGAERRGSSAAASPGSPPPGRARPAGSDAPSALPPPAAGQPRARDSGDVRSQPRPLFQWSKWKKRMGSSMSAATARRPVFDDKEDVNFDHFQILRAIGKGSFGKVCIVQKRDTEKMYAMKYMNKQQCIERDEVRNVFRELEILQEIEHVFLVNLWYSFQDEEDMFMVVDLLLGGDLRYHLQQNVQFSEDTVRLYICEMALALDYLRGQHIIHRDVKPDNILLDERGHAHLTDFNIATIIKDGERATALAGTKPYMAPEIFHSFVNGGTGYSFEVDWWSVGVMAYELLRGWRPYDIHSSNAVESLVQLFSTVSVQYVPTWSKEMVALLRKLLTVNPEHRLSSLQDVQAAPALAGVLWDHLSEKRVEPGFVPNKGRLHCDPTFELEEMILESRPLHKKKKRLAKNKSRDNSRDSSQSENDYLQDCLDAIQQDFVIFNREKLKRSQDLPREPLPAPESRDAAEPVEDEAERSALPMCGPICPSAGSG

[42] = molecular target: 5-hydroxytryptamine receptor 1E (Homo sapiens) (UniProt P28566); settings: Compound concentration 10.0 uM
[43] = molecular target: 5-hydroxytryptamine receptor 7 (Homo sapiens) (UniProt P34969); settings: Compound concentration 10.0 uM
Chain of 5-hydroxytryptamine receptor 7 (Homo sapiens) (P34969 whole entry): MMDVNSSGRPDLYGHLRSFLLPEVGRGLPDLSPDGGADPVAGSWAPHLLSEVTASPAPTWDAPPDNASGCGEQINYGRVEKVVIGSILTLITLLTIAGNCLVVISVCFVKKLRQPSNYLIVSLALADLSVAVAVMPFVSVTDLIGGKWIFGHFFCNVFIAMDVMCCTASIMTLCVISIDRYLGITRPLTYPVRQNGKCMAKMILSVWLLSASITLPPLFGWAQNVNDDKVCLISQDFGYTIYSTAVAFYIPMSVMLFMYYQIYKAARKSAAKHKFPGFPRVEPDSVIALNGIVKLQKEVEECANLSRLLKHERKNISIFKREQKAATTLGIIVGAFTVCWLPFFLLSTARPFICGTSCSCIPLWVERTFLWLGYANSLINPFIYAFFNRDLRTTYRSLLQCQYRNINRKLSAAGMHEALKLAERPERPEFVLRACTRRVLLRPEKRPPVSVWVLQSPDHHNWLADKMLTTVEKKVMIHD

[44] = molecular target: Sodium-dependent noradrenaline transporter (Homo sapiens) (UniProt P23975); settings: Compound concentration 10.0 uM
[45] = molecular target: Muscarinic acetylcholine receptor M3 (Homo sapiens) (UniProt P20309); settings: Compound concentration 10.0 uM
Chain of Muscarinic acetylcholine receptor M3 (Homo sapiens) (P20309 whole entry, looked up): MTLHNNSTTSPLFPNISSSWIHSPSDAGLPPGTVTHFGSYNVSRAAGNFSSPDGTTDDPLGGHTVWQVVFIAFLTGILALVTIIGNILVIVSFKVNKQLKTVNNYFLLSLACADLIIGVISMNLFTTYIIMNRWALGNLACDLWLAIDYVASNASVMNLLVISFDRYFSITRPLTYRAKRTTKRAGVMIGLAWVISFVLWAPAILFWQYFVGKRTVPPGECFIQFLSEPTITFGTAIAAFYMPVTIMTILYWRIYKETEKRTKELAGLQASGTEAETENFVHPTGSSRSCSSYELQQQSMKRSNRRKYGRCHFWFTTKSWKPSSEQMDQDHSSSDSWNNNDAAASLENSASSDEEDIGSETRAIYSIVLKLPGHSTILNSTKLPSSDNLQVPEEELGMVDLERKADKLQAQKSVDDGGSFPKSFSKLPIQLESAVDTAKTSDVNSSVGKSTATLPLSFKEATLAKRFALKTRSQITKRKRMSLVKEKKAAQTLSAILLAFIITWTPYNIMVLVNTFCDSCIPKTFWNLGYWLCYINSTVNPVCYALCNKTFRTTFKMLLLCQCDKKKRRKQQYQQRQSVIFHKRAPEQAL

Rattus norvegicus = organism: Rattus norvegicus; settings: Compound concentration 10.0 uM

Structure (SMILES): O=C(Nc1cccnn1)N1CC(C/C=C/c2cncc(Oc3ccc(C(F)(F)F)cn3)n2)C1
- residual activity [1]: 80%
- residual activity [2]: 100%
- residual activity [3]: 100%
- residual activity [4]: 81%
- residual activity [5]: 100%
- residual activity [6]: 73%
- residual activity [7]: 100%
- residual activity [8]: 72%
- residual activity [9]: 100%
- residual activity [10]: 83%
- residual activity [11]: 99%
- residual activity [12]: 100%
- residual activity [13]: 100%
- residual activity [14]: 100%
- residual activity [15]: 82%
- residual activity [16]: 96%
- residual activity [17]: 92%
- residual activity [18]: 88%
- residual activity [19]: 88%
- residual activity [20]: 100%
- residual activity [21]: 100%
- residual activity [22]: 100%
- residual activity [23]: 77%
- residual activity [24]: 79%
- residual activity [25]: 91%
- residual activity [26]: 96%
- residual activity [27]: 100%
- residual activity [28]: 100%
- residual activity [29]: 100%
- residual activity [30]: 100%
- residual activity [31]: 100%
- residual activity [32]: 100%
- residual activity [33]: 100%
- residual activity [34]: 67%
- residual activity [35]: 82%
- residual activity [36]: 77%
- residual activity [37]: 100%
- residual activity [38]: 84%
- residual activity [39]: 100%
- residual activity [40]: 0%
- residual activity [41]: 100%
- inhibition [42]: 0.84%
- inhibition [43]: 1.18%
- inhibition [44]: -1%
- inhibition [45]: 0.26%
- inhibition (Rattus norvegicus): 25.6%

Structure (SMILES): O=C(Nc1cccnn1)N1CCC(=Cc2cccc(Oc3ccc(C(F)(F)F)cn3)c2)CC1
- residual activity [1]: 76%
- residual activity [2]: 89%
- residual activity [3]: 100%
- residual activity [4]: 100%
- residual activity [5]: 100%
- residual activity [6]: 100%
- residual activity [7]: 100%
- residual activity [8]: 100%
- residual activity [9]: 85%
- residual activity [10]: 72%
- residual activity [11]: 100%
- residual activity [12]: 96%
- residual activity [13]: 100%
- residual activity [14]: 80%
- residual activity [15]: 100%
- residual activity [16]: 100%
- residual activity [17]: 100%
- residual activity [18]: 0%
- residual activity [19]: 88%
- residual activity [20]: 100%
- residual activity [21]: 81%
- residual activity [22]: 98%
- residual activity [23]: 100%
- residual activity [24]: 100%
- residual activity [25]: 100%
- residual activity [26]: 81%
- residual activity [27]: 100%
- residual activity [28]: 100%
- residual activity [29]: 97%
- residual activity [30]: 100%
- residual activity [31]: 97%
- residual activity [32]: 100%
- residual activity [33]: 100%
- residual activity [34]: 95%
- residual activity [35]: 97%
- residual activity [36]: 100%
- residual activity [37]: 100%
- residual activity [38]: 94%
- residual activity [39]: 97%
- residual activity [40]: 92%
- residual activity [41]: 100%
- inhibition [42]: 19%
- inhibition [43]: 37.5%
- inhibition [44]: 7.86%
- inhibition [45]: 27.5%
- inhibition (Rattus norvegicus): 59.6%
